20 compounds from ChEMBL document CHEMBL5291721, “A preclinical secondary pharmacology resource illuminates target-adverse drug reaction associations of marketed drugs” (Nat Commun, 2023) can be followed below.

What is called AC50 is the concentration at which the activity in the assay is half-maximal. The low end stands for greater potency, the high end for weaker potency.

The target of test [1] is D(3) dopamine receptor (Homo sapiens, UniProt P35462).
Test [2] has as its target T1, Alpha-2A adrenergic receptor (Homo sapiens, UniProt P08913).
T1 sequence (P08913 whole entry): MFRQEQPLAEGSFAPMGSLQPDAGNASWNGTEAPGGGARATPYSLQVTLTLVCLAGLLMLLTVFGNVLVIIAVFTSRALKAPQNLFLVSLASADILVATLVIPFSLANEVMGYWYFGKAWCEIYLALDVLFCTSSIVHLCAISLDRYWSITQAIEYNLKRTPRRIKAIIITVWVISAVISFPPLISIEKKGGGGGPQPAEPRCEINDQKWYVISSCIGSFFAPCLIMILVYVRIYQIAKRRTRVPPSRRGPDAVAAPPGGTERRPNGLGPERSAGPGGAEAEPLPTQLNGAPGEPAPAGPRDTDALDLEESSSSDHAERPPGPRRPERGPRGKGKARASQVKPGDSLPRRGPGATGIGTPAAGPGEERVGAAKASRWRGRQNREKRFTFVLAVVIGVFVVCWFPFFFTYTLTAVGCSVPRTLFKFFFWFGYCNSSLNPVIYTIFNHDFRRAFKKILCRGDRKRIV

Test [3] addresses T2, 5-hydroxytryptamine receptor 1A (Homo sapiens, UniProt P08908).
T2 sequence (P08908 whole entry): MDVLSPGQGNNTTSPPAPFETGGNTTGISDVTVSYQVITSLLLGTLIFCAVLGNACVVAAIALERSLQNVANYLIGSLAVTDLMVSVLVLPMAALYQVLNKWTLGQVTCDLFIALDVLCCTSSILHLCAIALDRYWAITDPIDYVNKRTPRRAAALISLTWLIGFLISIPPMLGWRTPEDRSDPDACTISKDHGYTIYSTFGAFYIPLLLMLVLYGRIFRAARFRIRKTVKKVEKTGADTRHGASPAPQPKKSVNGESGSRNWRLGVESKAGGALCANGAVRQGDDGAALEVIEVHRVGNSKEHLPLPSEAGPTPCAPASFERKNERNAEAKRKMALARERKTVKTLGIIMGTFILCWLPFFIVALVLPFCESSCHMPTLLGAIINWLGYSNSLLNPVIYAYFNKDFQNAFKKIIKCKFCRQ

In test [4] the target is Histamine H3 receptor (Homo sapiens, UniProt Q9Y5N1).
Sequence of Histamine H3 receptor (Q9Y5N1 whole entry): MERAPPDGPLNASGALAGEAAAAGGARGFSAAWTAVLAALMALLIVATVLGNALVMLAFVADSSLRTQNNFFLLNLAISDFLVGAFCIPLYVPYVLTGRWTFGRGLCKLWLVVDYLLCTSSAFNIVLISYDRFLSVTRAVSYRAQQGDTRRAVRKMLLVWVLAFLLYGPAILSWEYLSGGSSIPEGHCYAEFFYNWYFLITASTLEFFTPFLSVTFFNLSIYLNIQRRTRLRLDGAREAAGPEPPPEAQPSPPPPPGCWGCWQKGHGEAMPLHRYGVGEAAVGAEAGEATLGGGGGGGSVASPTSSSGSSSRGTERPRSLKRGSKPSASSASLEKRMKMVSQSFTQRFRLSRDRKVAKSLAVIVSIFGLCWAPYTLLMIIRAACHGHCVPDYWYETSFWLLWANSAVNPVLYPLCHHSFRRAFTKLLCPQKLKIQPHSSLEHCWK
Test [5] addresses Gamma-aminobutyric acid receptor subunit alpha-1/alpha-2/beta-2/gamma-2 (Homo sapiens, UniProt P14867+P18507+P47869+P47870). In kind it is protein-complex assay.
Test [6] deals with T3, Alpha-2C adrenergic receptor (Homo sapiens, UniProt P18825).
T3 sequence (P18825 whole entry): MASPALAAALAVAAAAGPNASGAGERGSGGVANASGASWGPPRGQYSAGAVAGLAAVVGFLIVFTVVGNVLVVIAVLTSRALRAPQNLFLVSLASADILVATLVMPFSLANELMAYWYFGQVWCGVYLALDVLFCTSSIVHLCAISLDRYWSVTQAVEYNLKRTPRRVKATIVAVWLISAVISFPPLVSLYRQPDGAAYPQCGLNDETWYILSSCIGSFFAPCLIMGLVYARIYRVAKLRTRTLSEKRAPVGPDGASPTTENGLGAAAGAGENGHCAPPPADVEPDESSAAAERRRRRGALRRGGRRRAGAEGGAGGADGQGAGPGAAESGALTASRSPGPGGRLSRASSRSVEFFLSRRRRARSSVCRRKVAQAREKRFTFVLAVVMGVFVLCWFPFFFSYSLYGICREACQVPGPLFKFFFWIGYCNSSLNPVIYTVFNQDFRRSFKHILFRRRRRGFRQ
The test is classed as functional.

The target in test [7] is Sodium-dependent dopamine transporter (Homo sapiens, UniProt Q01959).
Sequence of Sodium-dependent dopamine transporter (Q01959 whole entry): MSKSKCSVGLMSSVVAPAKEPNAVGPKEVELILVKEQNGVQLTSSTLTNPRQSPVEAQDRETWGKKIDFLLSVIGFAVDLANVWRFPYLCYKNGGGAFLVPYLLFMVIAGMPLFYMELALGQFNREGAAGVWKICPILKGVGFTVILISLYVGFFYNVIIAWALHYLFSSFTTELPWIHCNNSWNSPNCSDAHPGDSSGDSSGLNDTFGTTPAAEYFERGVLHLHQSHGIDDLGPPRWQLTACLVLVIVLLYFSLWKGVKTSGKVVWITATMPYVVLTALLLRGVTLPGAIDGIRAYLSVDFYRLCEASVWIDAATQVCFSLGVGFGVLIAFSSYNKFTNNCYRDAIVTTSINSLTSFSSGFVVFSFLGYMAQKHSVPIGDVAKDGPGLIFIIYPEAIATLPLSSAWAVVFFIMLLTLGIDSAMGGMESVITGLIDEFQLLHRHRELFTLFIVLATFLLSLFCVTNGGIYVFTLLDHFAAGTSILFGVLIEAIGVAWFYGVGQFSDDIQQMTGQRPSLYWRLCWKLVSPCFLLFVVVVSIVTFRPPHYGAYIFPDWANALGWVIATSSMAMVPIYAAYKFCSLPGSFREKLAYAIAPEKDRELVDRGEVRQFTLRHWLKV
Test [8] concerns the target T4, Amine oxidase [flavin-containing] A (Homo sapiens, UniProt P21397).
T4 sequence (P21397 whole entry): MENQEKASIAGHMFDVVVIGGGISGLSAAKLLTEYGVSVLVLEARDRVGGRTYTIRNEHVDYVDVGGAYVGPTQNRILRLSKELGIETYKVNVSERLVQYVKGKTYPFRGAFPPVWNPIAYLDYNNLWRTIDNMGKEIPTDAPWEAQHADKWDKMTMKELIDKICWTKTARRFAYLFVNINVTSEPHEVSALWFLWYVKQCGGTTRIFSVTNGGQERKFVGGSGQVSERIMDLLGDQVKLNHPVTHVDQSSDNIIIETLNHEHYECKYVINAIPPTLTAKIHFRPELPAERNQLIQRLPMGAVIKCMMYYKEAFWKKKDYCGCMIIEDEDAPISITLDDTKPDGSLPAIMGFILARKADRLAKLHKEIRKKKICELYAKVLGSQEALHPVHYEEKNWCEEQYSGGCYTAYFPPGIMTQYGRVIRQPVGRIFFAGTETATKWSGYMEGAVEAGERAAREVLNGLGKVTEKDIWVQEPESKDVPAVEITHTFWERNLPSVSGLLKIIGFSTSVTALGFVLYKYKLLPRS
In kind it is functional.
Further: assay procedure not described here.

Sequence of Gamma-aminobutyric acid receptor subunit alpha-1/alpha-2/beta-2/gamma-2 (P14867 whole entry): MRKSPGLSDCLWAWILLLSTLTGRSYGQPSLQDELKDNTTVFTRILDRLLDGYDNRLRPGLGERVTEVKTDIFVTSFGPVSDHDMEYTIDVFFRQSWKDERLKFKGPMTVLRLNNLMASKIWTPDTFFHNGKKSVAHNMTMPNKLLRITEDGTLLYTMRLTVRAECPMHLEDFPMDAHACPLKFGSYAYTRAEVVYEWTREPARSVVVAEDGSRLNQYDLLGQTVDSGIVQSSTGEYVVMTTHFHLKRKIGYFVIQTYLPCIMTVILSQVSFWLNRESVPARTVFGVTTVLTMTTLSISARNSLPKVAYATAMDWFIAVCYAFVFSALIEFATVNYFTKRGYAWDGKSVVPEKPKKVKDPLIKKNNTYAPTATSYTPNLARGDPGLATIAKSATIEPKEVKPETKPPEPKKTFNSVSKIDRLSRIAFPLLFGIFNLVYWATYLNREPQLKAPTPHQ
Sequence of Gamma-aminobutyric acid receptor subunit alpha-1/alpha-2/beta-2/gamma-2 (P47870 whole entry): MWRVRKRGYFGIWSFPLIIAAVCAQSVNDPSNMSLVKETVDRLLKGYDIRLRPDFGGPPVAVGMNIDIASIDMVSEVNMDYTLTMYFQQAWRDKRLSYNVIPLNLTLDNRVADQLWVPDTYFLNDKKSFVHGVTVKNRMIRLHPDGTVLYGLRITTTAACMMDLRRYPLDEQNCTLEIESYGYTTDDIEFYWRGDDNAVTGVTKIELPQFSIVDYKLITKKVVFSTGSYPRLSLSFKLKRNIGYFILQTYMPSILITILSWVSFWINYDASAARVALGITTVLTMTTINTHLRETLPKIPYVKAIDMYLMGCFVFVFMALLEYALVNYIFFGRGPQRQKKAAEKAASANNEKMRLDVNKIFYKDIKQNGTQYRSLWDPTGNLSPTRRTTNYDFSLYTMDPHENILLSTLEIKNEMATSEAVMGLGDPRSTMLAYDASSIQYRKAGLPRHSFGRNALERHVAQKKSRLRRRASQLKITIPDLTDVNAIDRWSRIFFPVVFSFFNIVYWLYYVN
Sequence of Gamma-aminobutyric acid receptor subunit alpha-1/alpha-2/beta-2/gamma-2 (P18507 whole entry): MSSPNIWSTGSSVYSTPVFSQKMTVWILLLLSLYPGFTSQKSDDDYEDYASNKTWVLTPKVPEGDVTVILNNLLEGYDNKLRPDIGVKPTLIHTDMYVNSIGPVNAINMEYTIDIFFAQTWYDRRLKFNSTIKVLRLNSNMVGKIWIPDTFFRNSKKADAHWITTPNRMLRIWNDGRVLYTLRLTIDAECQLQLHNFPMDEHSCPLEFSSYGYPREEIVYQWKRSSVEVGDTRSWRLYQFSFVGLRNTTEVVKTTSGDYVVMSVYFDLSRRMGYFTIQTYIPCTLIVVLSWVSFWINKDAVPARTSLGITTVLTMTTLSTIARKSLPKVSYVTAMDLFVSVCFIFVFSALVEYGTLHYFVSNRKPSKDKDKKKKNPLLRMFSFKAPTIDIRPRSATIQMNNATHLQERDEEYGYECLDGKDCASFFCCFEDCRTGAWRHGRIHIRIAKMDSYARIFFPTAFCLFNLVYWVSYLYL
Sequence of Gamma-aminobutyric acid receptor subunit alpha-1/alpha-2/beta-2/gamma-2 (P47869 whole entry): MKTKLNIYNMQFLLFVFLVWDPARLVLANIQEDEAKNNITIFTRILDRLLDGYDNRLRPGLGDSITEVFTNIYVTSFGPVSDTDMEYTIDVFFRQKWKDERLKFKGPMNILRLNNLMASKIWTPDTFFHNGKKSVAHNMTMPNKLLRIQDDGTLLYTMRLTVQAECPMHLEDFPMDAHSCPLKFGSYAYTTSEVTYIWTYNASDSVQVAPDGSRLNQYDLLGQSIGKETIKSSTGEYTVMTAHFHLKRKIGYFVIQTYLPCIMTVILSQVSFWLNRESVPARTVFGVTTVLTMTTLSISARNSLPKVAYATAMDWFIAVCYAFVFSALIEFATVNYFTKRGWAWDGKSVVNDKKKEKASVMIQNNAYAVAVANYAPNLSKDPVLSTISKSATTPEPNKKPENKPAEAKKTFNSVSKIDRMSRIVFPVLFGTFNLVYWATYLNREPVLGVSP
Sequence of D(3) dopamine receptor (P35462 whole entry): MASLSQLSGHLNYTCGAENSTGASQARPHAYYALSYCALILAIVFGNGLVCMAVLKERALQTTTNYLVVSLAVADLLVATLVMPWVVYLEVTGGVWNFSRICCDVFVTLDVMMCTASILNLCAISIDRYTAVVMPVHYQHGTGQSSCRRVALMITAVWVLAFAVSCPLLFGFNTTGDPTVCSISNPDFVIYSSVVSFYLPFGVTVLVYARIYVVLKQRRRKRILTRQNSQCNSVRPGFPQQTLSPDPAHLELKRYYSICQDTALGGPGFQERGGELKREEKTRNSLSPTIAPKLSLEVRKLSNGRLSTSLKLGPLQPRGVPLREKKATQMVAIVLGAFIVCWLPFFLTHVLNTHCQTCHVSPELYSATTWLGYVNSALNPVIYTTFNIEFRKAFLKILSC

As to `CN1CCN(C(c2ccccc2)c2ccccc2)CC1` [CYCLIZINE], the AC50 is 2.21 µM in test [1]; 3.47 µM in test [2]; over 30 µM in test [3]; over 30 µM in test [4]; over 30 µM in test [5].
As for `C[C@@H]1C[C@H]2[C@@H]3CCC4=CC(=O)C=C[C@]4(C)[C@@]3(F)[C@@H](O)C[C@]2(C)[C@H]1C(=O)CO` [DESOXIMETASONE], the AC50 in test [1], in test [2], in test [3], in test [4] and in test [5] was over 30 µM throughout.
For `COc1ccc(-c2cc(=O)c3c(O)cc(O[C@@H]4O[C@H](CO[C@@H]5O[C@@H](C)[C@H](O)[C@@H](O)[C@H]5O)[C@@H](O)[C@H](O)[C@H]4O)cc3o2)cc1O` [DIOSMIN], the AC50 in test [1], in test [2], in test [3], in test [4] and in test [5] was over 30 µM each time.
For `CCOc1ccc(/C=C2\NCCc3cc(OCC)c(OCC)cc32)cc1OCC` [DROTAVERINE], the AC50 is over 30 µM in test [1]; 5.83 µM in test [2]; over 30 µM in test [3]; over 30 µM in test [4]; over 30 µM in test [5].
As to `C[C@@H]1C[C@H]2[C@@H]3C[C@H](F)C4=CC(=O)C=C[C@]4(C)[C@@]3(F)[C@@H](O)C[C@]2(C)[C@@]1(O)C(=O)COC(=O)C(C)(C)C` [FLUMETHASONE PIVALATE], the AC50 in test [1], in test [2], in test [3], in test [4] and in test [5] was over 30 µM each time.
In the case of `CC(C)Cc1ccc(C(C)C(=O)NO)cc1` (stereo not drawn) [IBUPROXAM], the AC50 in test [1], in test [2], in test [3], in test [4] and in test [5] was over 30 µM each time.
Take `CC/C=C\C/C=C\C/C=C\C/C=C\C/C=C\CCCC(=O)O` [ICOSAPENT]: the AC50 in test [1], in test [2], in test [3], in test [4] and in test [5] was over 30 µM each time.
As to `CS(=O)(=O)Nc1cc2occ(NC=O)c(=O)c2cc1Oc1ccccc1` [IGURATIMOD], the AC50 in test [6], in test [1], in test [2], in test [3], in test [4] and in test [7] was over 30 µM throughout. Besides, the AC50 in test [8] and in test [5] was over 30 µM each time.
Regarding `Oc1c(I)cc(I)c2cccnc12` [IODOQUINOL], the AC50 is over 30 µM in test [1]; over 30 µM in test [2]; over 10 µM in test [3]; over 30 µM in test [4]; over 30 µM in test [5].
As for `CCN(CC)CCNc1ccc(C)c2sc3ccccc3c(=O)c12` [LUCANTHONE], the AC50 in test [1] is 0.91 µM; in test [2] it was 5.65 µM; in test [3] it was 0.523 µM; in test [4] it was 10.5 µM; in test [5], over 30 µM.
For `CC(=O)OC(C)C[N+](C)(C)C` (stereo not drawn) [METHACHOLINE] the same measures were over 30 µM, over 30 µM, over 30 µM, over 30 µM and over 30 µM.
As for `COc1ccc2c(c1)OC(C)(C)C(c1ccccc1)C2c1ccc(OCCN2CCCC2)cc1` (stereo not drawn) [ORMELOXIFENE], the AC50 in test [1] is 0.205 µM; in test [2], 10.6 µM; in test [3], 9.91 µM; in test [4] it was 0.785 µM; in test [5] it was over 10 µM.
As to `Oc1cccc2cccnc12` [OXYQUINOLINE], the AC50 in test [1], in test [2], in test [3], in test [4] and in test [5] was over 30 µM throughout.
Regarding `Nc1nc2c(ncn2CCC(CO)CO)c(=O)[nH]1` [PENCICLOVIR], the AC50 in test [1], in test [2], in test [3], in test [4] and in test [5] was over 30 µM each time.
For `CC[C@@H]1/C=C(\C)C[C@H](C)C[C@H](OC)[C@H]2O[C@@](O)(C(=O)C(=O)N3CCCC[C@H]3C(=O)O[C@H](/C(C)=C/[C@@H]3CC[C@H](Cl)[C@H](OC)C3)[C@H](C)[C@@H](O)CC1=O)[C@H](C)C[C@@H]2OC` [PIMECROLIMUS], the AC50 in test [1] was over 30 µM; in test [2], over 30 µM; in test [3] it was over 30 µM; in test [4], over 30 µM; in test [5], over 10 µM.
As for `CC(C(=O)O)c1ccc2c(c1)Cc1cccnc1O2` (stereo not drawn) [PRANOPROFEN], the AC50 in test [1], in test [2], in test [3], in test [4] and in test [5] was over 30 µM in each case.
In the case of `CCO[C@@H](Cc1ccc(OCCn2c(C)ccc2-c2ccc(SC)cc2)cc1)C(=O)O` [SAROGLITAZAR], the half-maximal activity concentration (AC50) in test [1] was 22.2 µM; in test [2], over 30 µM; in test [3], over 30 µM; in test [4], over 30 µM; in test [5], over 3 µM.
Turning to `CN1CCC2=C(C1)c1ccccc1Cc1ccccc12` [SETIPTILINE], the AC50 was 0.543 µM in test [1]; 0.0996 µM in test [2]; 0.154 µM in test [3]; over 30 µM in test [4]; over 30 µM in test [5].
For `COc1ccc(CCC(C)NCC(O)c2ccc(O)c([S+](C)[O-])c2)cc1` (stereo not drawn) [SULFINALOL], the AC50 was over 30 µM in test [1]; over 30 µM in test [2]; 0.326 µM in test [3]; over 30 µM in test [4]; over 30 µM in test [5].
In the case of `C[C@@H]1O[C@@H](OC[C@H]2O[C@@H](Oc3c(-c4ccc(OCCO)c(OCCO)c4)oc4cc(OCCO)cc(O)c4c3=O)[C@H](O)[C@@H](O)[C@@H]2O)[C@H](O)[C@H](O)[C@H]1O` [TROXERUTIN], the AC50 in test [1], in test [2], in test [3], in test [4] and in test [5] was over 30 µM throughout.
